{"source": "patent US10597388B2", "about": "“Pyridazinone herbicides” (FMC CORPORATION, priority 2014, dated 2020)", "format_in_all_cases": "in vivo", "key": {"[1]": {"system": "ragweed (common ragweed, Ambrosia elatior)", "experiment": "Test C greenhouse herbicide test, pre- and postemergence", "excerpt": "(§1) Seeds of plant species selected from blackgrass (Alopecurus myosuroides), ryegrass, Italian (Italian ryegrass, Lolium multiflorum), wheat (winter wheat, Triticum aestivum), galium (catchweed bedstraw, Galium aparine), corn (Zea mays), large crabgrass, large (large crabgrass, Digitaria sanguinalis), foxtail, giant (giant foxtail, Setaria faberii), johnsongrass (Sorghum halepense), lambsquarters (Chenopodium album), morningglory (Ipomoea coccinea), nutsedge, yellow (yellow nutsedge, Cyperus esculentus), pigweed (Amaranthus retroflexus), ragweed (common ragweed, Ambrosia elatior), soybean (Glycine max), barnyardgrass (Echinochloa crus-galli), oilseed rape (Brassica napus), waterhemp (common waterhemp, Amaranthus rudis), and velvetleaf (Abutilon theophrasti) were planted into a blend of loam soil and sand and treated preemergence with test chemicals formulated in a non-phytotoxic solvent mixture which included a surfactant.\n(§2) At the same time, plants selected from these crop and weed species and also chickweed (common chickweed, Stellaria media), kochia (Kochia scoparia), and oat, wild (wild oat, Avena fatua), were planted in pots containing Redi-Earth® planting medium (Scotts Company, 14111 Scottslawn Road, Marysville, Ohio 43041) comprising spaghnum peat moss, vermiculite, wetting agent and starter nutrients and treated with postemergence applications of test chemicals formulated in the same manner. Plants ranged in height from 2 to 18 cm (1- to 4-leaf stage) for postemergence treatments. Treated plants and controls were maintained in a greenhouse for 13 to 15 d, after which time all species were compared to controls and visually evaluated. Plant response ratings, summarized in Table C, are based on a scale of 0 to 100 where 0 is no effect and 100 is complete control. A dash (-) response means no test result."}, "[2]": {"system": "waterhemp (common waterhemp, Amaranthus rudis)", "experiment": "Test C greenhouse herbicide test, pre- and postemergence", "excerpt": "as §1, §2"}, "[3]": {"system": "soybean (Glycine max)", "experiment": "Test C greenhouse herbicide test, pre- and postemergence", "excerpt": "as §1, §2"}, "[4]": {"system": "corn (Zea mays)", "experiment": "Test C greenhouse herbicide test, pre- and postemergence", "excerpt": "as §1, §2"}, "[5]": {"system": "morningglory (Ipomoea coccinea)", "experiment": "Test C greenhouse herbicide test, pre- and postemergence", "excerpt": "as §1, §2"}, "[6]": {"system": "blackgrass (Alopecurus myosuroides)", "experiment": "Test C greenhouse herbicide test, pre- and postemergence", "excerpt": "as §1, §2"}, "[7]": {"system": "velvetleaf (Abutilon theophrasti)", "experiment": "Test C greenhouse herbicide test, pre- and postemergence", "excerpt": "as §1, §2"}, "[8]": {"system": "johnsongrass (Sorghum halepense)", "experiment": "Test C greenhouse herbicide test, pre- and postemergence", "excerpt": "as §1, §2"}, "[9]": {"system": "pigweed (Amaranthus retroflexus)", "experiment": "Test C greenhouse herbicide test, pre- and postemergence", "excerpt": "as §1, §2"}, "[10]": {"system": "ryegrass, Italian (Italian ryegrass, Lolium multiflorum)", "experiment": "Test C greenhouse herbicide test, pre- and postemergence", "excerpt": "as §1, §2"}, "[11]": {"system": "crabgrass, large (large crabgrass, Digitaria sanguinalis)", "experiment": "Test C greenhouse herbicide test, pre- and postemergence", "excerpt": "as §1, §2"}, "[12]": {"system": "oilseed rape (Brassica napus)", "experiment": "Test C greenhouse herbicide test, pre- and postemergence", "excerpt": "as §1, §2"}, "[13]": {"system": "foxtail, giant (giant foxtail, Setaria faberii)", "experiment": "Test C greenhouse herbicide test, pre- and postemergence", "excerpt": "as §1, §2"}, "[14]": {"system": "lambsquarters (Chenopodium album)", "experiment": "Test C greenhouse herbicide test, pre- and postemergence", "excerpt": "as §1, §2"}, "[15]": {"system": "oat, wild (wild oat, Avena fatua)", "experiment": "Test C greenhouse herbicide test, postemergence", "how_it_was_run": "(§3)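 Test chemicals were applied postemergence to greenhouse plants at the 1- to 4-leaf stage (2–18 cm tall) growing in peat/vermiculite medium. After 13–15 d, injury was rated visually against untreated controls on a 0–100 scale (0 = no effect, 100 = complete control).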"}, "[16]": {"system": "kochia (Kochia scoparia)", "experiment": "Test C greenhouse herbicide test, postemergence", "how_it_was_run": "as §3"}, "[17]": {"details": "Postemergence, 31 g ai/ha, 0 to 100 scale (0 no effect, 100 complete control)"}, "[18]": {"details": "Postemergence, 125 g ai/ha, scale 0 to 100, 0 is no effect, 100 is complete control"}, "[19]": {"details": "Postemergence, 250 g ai/ha, scale 0 to 100, 0 no effect, 100 complete control, 13 to 15 d"}, "[20]": {"details": "postemergence, 62 g ai/ha, scale 0 to 100, 0 no effect, 100 complete control"}}, "data": [{"smiles": "COc1nn(C)c(=O)c(-c2c(C)sc3ccccc23)c1O", "note": "[Compound 33]", "values": [{"measurement": "Ragweed plant response rating", "setting": "[1]; [17]", "value": 85}, {"measurement": "Plant response rating, Ragweed", "setting": "[1]; [18]", "value": 90}, {"measurement": "Plant response rating, Ragweed", "setting": "[1]; [19]", "value": 98}, {"measurement": "Ragweed plant response rating", "setting": "[1]; [20]", "value": 95}, {"measurement": "Waterhemp plant response rating", "setting": "[2]; [17]", "value": 25}, {"measurement": "Plant response rating, Waterhemp", "setting": "[2]; [18]", "value": 65}, {"measurement": "Plant response rating, Waterhemp", "setting": "[2]; [19]", "value": 75}, {"measurement": "Waterhemp plant response rating", "setting": "[2]; [20]", "value": 30}, {"measurement": "Soybean plant response rating", "setting": "[3]; [17]", "value": 0}, {"measurement": "Plant response rating, Soybean", "setting": "[3]; [18]", "value": 0}, {"measurement": "Plant response rating, Soybean", "setting": "[3]; [19]", "value": 0}, {"measurement": "Soybean plant response rating", "setting": "[3]; [20]", "value": 0}, {"measurement": "Corn plant response rating", "setting": "[4]; [17]", "value": 0}, {"measurement": "Plant response rating, Corn", "setting": "[4]; [18]", "value": 5}, {"measurement": "Plant response rating, Corn", "setting": "[4]; [19]", "value": 20}, {"measurement": "Corn plant response rating", "setting": "[4]; [20]", "value": 5}, {"measurement": "Morningglory plant response rating", "setting": "[5]; [17]", "value": 85}, {"measurement": "Plant response rating, Morningglory", "setting": "[5]; [18]", "value": 95}, {"measurement": "Plant response rating, Morningglory", "setting": "[5]; [19]", "value": 98}, {"measurement": "Morningglory plant response rating", "setting": "[5]; [20]", "value": 95}, {"measurement": "Blackgrass plant response rating", "setting": "[6]; [17]", "value": 0}, {"measurement": "Plant response rating, Blackgrass", "setting": "[6]; [18]", "value": 5}, {"measurement": "Plant response rating, Blackgrass", "setting": "[6]; [19]", "value": 10}, {"measurement": "Blackgrass plant response rating", "setting": "[6]; [20]", "value": 0}, {"measurement": "Velvetleaf plant response rating", "setting": "[7]; [17]", "value": 10}, {"measurement": "Plant response rating, Velvetleaf", "setting": "[7]; [18]", "value": 75}, {"measurement": "Plant response rating, Velvetleaf", "setting": "[7]; [19]", "value": 85}, {"measurement": "Velvetleaf plant response rating", "setting": "[7]; [20]", "value": 60}, {"measurement": "Johnsongrass plant response rating", "setting": "[8]; [17]", "value": 0}, {"measurement": "Plant response rating, Johnsongrass", "setting": "[8]; [18]", "value": 5}, {"measurement": "Plant response rating, Johnsongrass", "setting": "[8]; [19]", "value": 40}, {"measurement": "Johnsongrass plant response rating", "setting": "[8]; [20]", "value": 5}, {"measurement": "Pigweed plant response rating", "setting": "[9]; [17]", "value": 30}, {"measurement": "Plant response rating, Pigweed", "setting": "[9]; [18]", "value": 65}, {"measurement": "Plant response rating, Pigweed", "setting": "[9]; [19]", "value": 80}, {"measurement": "Pigweed plant response rating", "setting": "[9]; [20]", "value": 50}, {"measurement": "Ryegrass, Italian plant response rating", "setting": "[10]; [17]", "value": 30}, {"measurement": "Plant response rating, Ryegrass, Italian", "setting": "[10]; [18]", "value": 70}, {"measurement": "Plant response rating, Ryegrass, Italian", "setting": "[10]; [19]", "value": 75}, {"measurement": "Ryegrass, Italian plant response rating", "setting": "[10]; [20]", "value": 45}, {"measurement": "Crabgrass, Large plant response rating", "setting": "[11]; [17]", "value": 10}, {"measurement": "Plant response rating, Crabgrass, Large", "setting": "[11]; [18]", "value": 20}, {"measurement": "Plant response rating, Crabgrass, Large", "setting": "[11]; [19]", "value": 25}, {"measurement": "Crabgrass, Large plant response rating", "setting": "[11]; [20]", "value": 20}, {"measurement": "Oilseed Rape plant response rating", "setting": "[12]; [17]", "value": 40}, {"measurement": "Plant response rating, Oilseed Rape", "setting": "[12]; [18]", "value": 30}, {"measurement": "Plant response rating, Oilseed Rape", "setting": "[12]; [19]", "value": 50}, {"measurement": "Oilseed Rape plant response rating", "setting": "[12]; [20]", "value": 55}, {"measurement": "Foxtail, Giant plant response rating", "setting": "[13]; [17]", "value": 20}, {"measurement": "Plant response rating, Foxtail, Giant", "setting": "[13]; [18]", "value": 60}, {"measurement": "Plant response rating, Foxtail, Giant", "setting": "[13]; [19]", "value": 70}, {"measurement": "Foxtail, Giant plant response rating", "setting": "[13]; [20]", "value": 40}, {"measurement": "Lambsquarters plant response rating", "setting": "[14]; [17]", "value": 90}, {"measurement": "Plant response rating, Lambsquarters", "setting": "[14]; [18]", "value": 98}, {"measurement": "Plant response rating, Lambsquarters", "setting": "[14]; [19]", "value": 100}, {"measurement": "Lambsquarters plant response rating", "setting": "[14]; [20]", "value": 95}, {"measurement": "Oat, Wild plant response rating", "setting": "[15]; [17]", "value": 35}, {"measurement": "Plant response rating, Oat, Wild", "setting": "[15]; [18]", "value": 40}, {"measurement": "Plant response rating, Oat, Wild", "setting": "[15]; [19]", "value": 45}, {"measurement": "Oat, Wild plant response rating", "setting": "[15]; [20]", "value": 30}, {"measurement": "Kochia plant response rating", "setting": "[16]; [17]", "value": 20}, {"measurement": "Plant response rating, Kochia", "setting": "[16]; [18]", "value": 40}, {"measurement": "Plant response rating, Kochia", "setting": "[16]; [19]", "value": 50}, {"measurement": "Kochia plant response rating", "setting": "[16]; [20]", "value": 5}]}]}
